Laboratory results reported in patent US6391304B1, “Peptides derived from the ENV gene of the feline immunodeficiency virus and their applications” (Centre National de la Recherche Scientifique, priority 1997, dated 2002).
Several values for one entry are separate records, joined by “and”; a condition that tells them apart may be missing. Identical values can stand only once. Entries after “also recorded” stand apart in the source; their conditions may differ. Ends that are not written are not given here.

Legend:
[1] = system: immobilized peptide (SU2, SU5, TM2 or TM3-19); test: ELISA anti-peptide titre during the immunization of cats; assay type: in vivo; details: individual cats immunized with KLH-coupled peptide; absorbance at 405 nm greater than 0.1
Protocol: (§1) Groups of four cats 4½ months old are immunized subcutaneously with 120 μg of FIV peptide (approximately 250 μg of peptide coupled to KLH (keyhole limpet haemocyanin)), emulsified in complete Freund's adjuvant.
(§2) Four repeat immunizations are administered subcutaneously in an incomplete Freund's adjuvant, generally at intervals of 2-3 weeks, although the interval between the last 2 […] was 7 weeks.
(§3) The production on of antibodies is evaluated before the test by means of an ELISA using an immobilized peptide (SU2, SU5, TM2 or TM3-19) and immunoprecipitation. After the test, the seroconversion is monitored by an ELISA using immobilized envelope peptides and a recombinant FTV capsid protein.
(§4) The ELISA with the immobilized envelope peptides corresponding to the immunogenic domains SU2 and TM2 and with the immobilized recombinant p25 protein (FIV capsid protein) is carried out as described in Avraméas A. et al. (Res. Virol., 1993, 144, 209-218).
(§5) Microplates (Immunolon II, Dynatech) are coated with 0.5 μg/well for the peptides and with 0.1 μg/well for the p25 protein.
(§6) The tests are carried out in duplicate and the results are expressed as average values.
The anti-peptide titres before the test are expressed as the logarithm of the inverse of the last dilution of serum which gives an absorbance (at 405 nm) of greater than 0.1.

FIV Petaluma strain = test: Neutralization of infection of CrFK cells by sera of immunized cats; assay type: cell-based; details: for neutralizing antibodies in sera of immunized cats: CrFK cell line
Protocol: The detection of antibodies neutralizing the infection of the CrFKs with the FIV Petaluma strain is carried out as described previously (Richardson J. et al., J. Gen. Virol., 1996, 77, 759-771).
To evaluate the function of the antibodies, the feline sera directed against the SU2 peptide are tested for their neutralizing value with respect to the infection of CrFK cells with the FIV Petaluma strain.

TM2 envelope peptide = test: Seroconversion ELISA after the virulence test, TM2 peptide; assay type: in vivo, cats; details: for Binding of the sera to TM2, 3 weeks after the virulence test / Binding of the sera to TM2, 4 weeks after the virulence test / Binding of the sera to TM2, 5 weeks after the virulence test: ELISA, seral dilution 1/25, individual cats; for response against the TM2 peptide: at 4 weeks after the test
Protocol: (§7) The cats are subjected to a virulence test, one week after the final immunization, by means of an intraperitoneal inoculation of 10 CID50 of FIV Wo isolate, one CID50 corresponding to the dose capable of infecting 50% of the cats.
as §3, §4, §5, §6
After the test, the seroconversion against the envelope peptides and the p25 protein is evaluated at serum dilutions of 1/25 and 1/100, respectively.
The absorbance values (at 405 nm) are corrected by subtraction of the absorbance values obtained by binding with an immobilized control peptide.
The tests are normalized with reference to the binding of a mixture of serum from cats infected with FIV with a peptide representing the immunodominant domain of the FIV transmembrane glycoprotein (TM2) (Avraméas A. et al., Res. Virol., 1993, 144, 209-218).

CD4+ T lymphocytes = test: Counting of circulating CD4+ T lymphocytes by flow cytometry; assay type: in vivo, cats; details: acute infection with FIV Wo, FIG. 2
Protocol: Counting of the CD4^+ T lymphocytes is carried out at regular intervals before the test, on the day of the test and at regular intervals during the acute infection.
The CD4^+ T lymphocytes are counted by flow cytometry, using monoclonal antibodies (Clinisciences).
To evaluate the effect of the immunization on the pathology associated with a primary infection, circulating CD4^+ lymphocytes are counted before and after the test with the FIV Wo strain.

FIV Wo isolate = test: Plasmatic viral load by competitive RT-PCR after the virulence test; assay type: in vivo, cats; details: for course of the primary infection (viral RNA in plasma, viral dissemination): after test with 10 CID50 of Wo isolate, relative to control cats, FIG. 3
Protocol: as §1, §2, §7
The plasma is filtered (0.45 μm) and the RNA not associated with cells is extracted directly from the filtered plasma using the Viral RNA kit (Qiagene) and eluted in 50 μl of water according to the manufacturer's instructions, and the RNA is then divided into aliquots and stored at −80° C.
A conserved region of the FIV gag gene is selected as a target sequence for the reverse transcription of the competitive RNA and the overlapping PCR amplification.
For the synthesis of the cDNA, 2.5 μl of viral RNA are mixed with 2.5 μl containing different numbers of copies of competitive RNA; typically, the various samples of competitive RNA are prepared using 5 semi-logarithmic dilutions, straddling the number of copies estimated in the biological sample.
The RNA is denatured at 65° C. for 5 minutes and immediately placed on ice. The reagents for the reverse transcription (15 μl) are added.
The final reaction mixtures contain 0.3 U/ml of random hexanucleotides (sequences of 6 randomly aligned nucleotides which make it possible theoretically to amplify any RNA fragment) (Pharmcia), 0.5 mM of dNTP, 10 mM of DTT, 1× of commercial buffer (Gibco BRL) and 100 U of Superscript II (Glbco BRL), in a volume of 20 μl.
The reactions are first carried out at 25° C. for 10 minutes to promote the hybridization of the primers, and then at 42° C. for 50 minutes. The reverse transcriptase is inactivated by incubation at 95° C. for 5 minutes.
The highly conserved sequences are selected as primers. The complementary DNA is amplified by overlapping PCR, using:
For the first amplification, the PCR reagents (80 μl) are added as a mixture with 20 μl of cDNA.
The DNA is denatured at 94° C. for 3 minutes, subjected to 28 cycles of amplification (94° C. 30 s/55° C. 30 s/72° C. 30 s) and to an elongation at 72° C. for 7 minutes.
For the overlapping amplification, 2 μl of the product of the first amplification is transferred into 98 μl of reaction mixture containing 200 μM of dNTP, 1.5 mM of MgCl2, 0.5 μM of each internal primer, 1× of commercial buffer (Gibco BRL) and 0.25 U of Taq polymerase (Gibco BRL).
The DNA is denatured at 94° C. for 3 minutes, subjected to 28 cycles of amplification (94° C. 30 s/52° C. 30 s/72° C. 30 s) and to an elongation at 72° C. for 7 minutes.
The amplification products (10 μl ) are subjected to electrophoresis on 2.75% agarose gel.
Digital images of the gels stained with ethidium bromide are obtained using the Appligene Imager and the densitometry analyses are carried out with the Image NIH software. The density of the competitive product is adjusted as a function of the difference between the length of the native sequence and that of the competitive sequence.
The logarithm of the ratio:density or competitive product/density of the native product, is plotted as a function of the logarithm of the number of copies of competitive RNA added to each reaction.
The best adjustment is determined by the least-squares method and the number of copies of native RNA corresponds to the intersection of the axis of the Xs (Piatak M. Jr. et al., Biotechniques, 1993, 14, 70-80).
The cumulative area under the curve (Dawson J., Drug Information J., 1994, 28, 723-732) is calculated from graphs illustrating the ratio: copies of viral RNA/ml of plasma/time, and compared with the Mann-Whitney test.

| Substance | Anti-peptide titre, 1st injection [1] | Anti-peptide titre, 2nd injection [1] | Anti-peptide titre, Day of the test [1] | neutralizing antibodies in sera of immunized cats (FIV Petaluma strain) | Binding of the sera to TM2, 3 weeks after the virulence test (TM2 envelope peptide) | Binding of the sera to TM2, 4 weeks after the virulence test (TM2 envelope peptide) | Binding of the sera to TM2, 5 weeks after the virulence test (TM2 envelope peptide) | response against the TM2 peptide (TM2 envelope peptide) | number of CD4+ lymphocytes after the infection (CD4+ T lymphocytes) | Plasmatic viraemia, RT-PCR (FIV Wo isolate; 3 weeks after the test with 10 CID50 of FIV Wo, individual cats) | course of the primary infection (viral RNA in plasma, viral dissemination) (FIV Wo isolate) | reduction in the viral load relative to the control cats, Mann-Whitney test p (FIV Wo isolate; area under the cumulative curve at 3 weeks and 4 weeks after the test) | detection of plasmatic viraemia during the measurement period (FIV Wo isolate; cat 348) | number of copies of viral RNA observed in plasma (maximum) (FIV Wo isolate; primary infection, measurement period) | final dilution of serum which reduces the infection by at least 50% (FIV Petaluma strain; cat 327, CrFK cells) |
| --- | --- | --- | --- | --- | --- | --- | --- | --- | --- | --- | --- | --- | --- | --- | --- |
| KKGLQQLQEWEDWVGWIGN [TM3-19, 19-amino-acid fragment of the TM3 domain of the FIV Wo Env transmembrane glycoprotein (759-777)] | 4.71 logarithm of the inverse of the last dilution of serum and 5.01 logarithm of the inverse of the last dilution of serum and 5.31 logarithm of the inverse of the last dilution of serum | 4.71 logarithm of the inverse of the last dilution of serum and 5.31 logarithm of the inverse of the last dilution of serum and 5.01 logarithm of the inverse of the last dilution of serum and 3.20 logarithm of the inverse of the last dilution of serum | 4.40 logarithm of the inverse of the last dilution of serum (3×) and 4.71 logarithm of the inverse of the last dilution of serum | do not neutralize | 0 optical density (3×) and 1.2 optical density | 0.1 optical density and 2.4 optical density and 0 optical density and 0.5 optical density | 1.9 optical density and 2.5 optical density and 0 optical density and 2.3 optical density | all but one (347) of the cats immunized with the TM3-19 peptide show a weak or undetectable response | does not show a large decrease | undetectable (2×) and 1.19 × 10^7 copies of viral RNA/ml of plasma and 5.56 × 10^6 copies of viral RNA/ml of plasma | generally different from that observed with the control cats; also recorded: the infection in the other 3 cats of this group appears in a retarded manner; also recorded: significantly retards the viral dissemination | 0.02 | not possible to detect a plasmatic viraemia in one of the cats (348) | ≤ 3.1×10^6 copies/ml |  |
| SU2: peptide of the SU2 domain of the FIV surface envelope glycoprotein, SEQ ID NO: 2, used as immunogen (RAISSWKQRNRWEWRPD) | 4.40 logarithm of the inverse of the last dilution of serum and 5.31 logarithm of the inverse of the last dilution of serum and 4.71 logarithm of the inverse of the last dilution of serum and 5.01 logarithm of the inverse of the last dilution of serum | 4.71 logarithm of the inverse of the last dilution of serum and 5.01 logarithm of the inverse of the last dilution of serum (2×) and 5.31 logarithm of the inverse of the last dilution of serum | 5.31 logarithm of the inverse of the last dilution of serum and 4.71 logarithm of the inverse of the last dilution of serum and 5.61 logarithm of the inverse of the last dilution of serum and 5.01 logarithm of the inverse of the last dilution of serum | Only one cat (327) immunized with the SU2 peptide develops neutralizing antibodies | 0 optical density | 1.3 optical density and 2.2 optical density and 2.1 optical density and 1.4 optical density | 2.1 optical density (2×) and 2.3 optical density and 2.5 optical density | developed a large response | gradual reduction |  | does not appear to modify the course of the primary infection; also recorded: do not modify the course of the infection |  |  |  | 1/160 |
